Assay results reported in patent publication US10906878B2, “Kinase inhibitors for the treatment of disease” (Dana-Farber Cancer Institute, Inc., priority 2013, dated 2021).

What was measured:
Assay type in all cases: cell-based
EGFR Del Ba/F3 cells = EGFR Del Ba/F3 cells (Homo sapiens, UniProt P00533, cells depend on it, form not given); assay: Ba/F3 cell growth inhibition (MTS assay), EGFR Del
From the text: (§1) The specific cDNAs encoding the oncogenic alterations (EGFR: Del 19, L858R, L718Q, L844V, Del/T790M, L858R/T790M, Del 19/L718Q, Del 19/L844V, Del 19/T790M/L718Q and L858R/T790M/L718Q; FGFR: TEL-FGFR1, TEL-FGFR2, TEL-FGFR1 V561M, TEL-FGFR2 V561M; ALK: EML4-ALK; ROS1: CD74-ROS1) were cloned into the pDNA-Dual (BD Biosciences) vector using standard molecular biology techniques. Mutations were introduced using site-directed mutagenesis (Agilent) with mutant specific primers according to the manufacturer's instructions. All constructs were confirmed by DNA sequencing. The constructs were introduced into Ba/F3 cells using retroviral infection. Polyclonal cell lines were established by puromycin selection and subsequently cultured in the absence of interleukin-3 (IL-3). Uninfected Ba/F3 cells or cell lines expressing green fluorescent protein (GFP) were used as controls.
(§2) Growth and inhibition of growth was assessed by MTS assay. This assay, a colorimetric method for determining the number of viable cells, is based on the bioreduction of 3-(4,5-dimethylthiazol-2-yl)-5-(3-carboxymethoxyphenyl)-2-(4-sulfophenyl)-2H-tetrazolium (MTS) by cells to a formazan product that is soluble in cell culture medium, can be detected spectrophotometrically and was performed according to the manufacturer's recommended conditions. Ba/F3 cells were exposed to treatment for 72 hours and the number of cells used per experiment determined empirically to assure linear growth kinetics over that time period. All experimental points were set up in six to twelve wells and all experiments were repeated at least three times. […] The curves were fitted using a non-linear regression model with a sigmoidal dose response.

[1] = target: EGFR Del/T790M Ba/F3 cells (Homo sapiens, UniProt P00533, T790M, cells depend on it, form not given); assay: Ba/F3 cell growth inhibition (MTS assay), EGFR Del/T790M; settings: for EGFR activity (% Control, 100 nM drug) Del/T790M: Table G; for EGFR activity (% Control, 100 nM drug) DEL/T790M: Table F
From the text: as §1, §2

EGFR L858R Ba/F3 cells = EGFR L858R Ba/F3 cells (Homo sapiens (Human), UniProt P00533, L858R); assay: Ba/F3 cell growth inhibition (MTS assay), EGFR L858R
From the text: as §1, §2

[2] = target: EGFR L858R/T790M Ba/F3 cells (Homo sapiens (Human), UniProt P00533, L858R/T790M); assay: Ba/F3 cell growth inhibition (MTS assay), EGFR L858R/T790M
From the text: as §1, §2

[3] = target: EGFR L858R/T790M/L718Q Ba/F3 cells (Homo sapiens (Human), UniProt P00533, L718Q/L858R/T790M); assay: Ba/F3 cell growth inhibition (MTS assay), EGFR L858R/T790M/L718Q; settings: for EGFR activity (% Control, 100 nM drug) L858R/T790M/L718Q: Table F
From the text: as §1, §2

[4] = target: EGFR L718Q/L858R Ba/F3 cells (Homo sapiens (Human), UniProt P00533, L718Q/L858R); assay: Ba/F3 cell growth inhibition (MTS assay), EGFR L858R/L718Q; settings: for EGFR activity (% Control, 100 nM drug) L858R/L718Q: Table F

Compound | EGFR activity (% Control, 100 nM drug) Del (EGFR Del Ba/F3 cells; Table G) | EGFR activity (% Control, 100 nM drug) Del/T790M [1] | EGFR activity (% Control, 100 nM drug) L858R (EGFR L858R Ba/F3 cells; Table G) | EGFR activity (% Control, 100 nM drug) L858R/T790M ([2]; Table G) | EGFR activity (% Control, 100 nM drug) Del (EGFR Del Ba/F3 cells; Table F) | EGFR activity (% Control, 100 nM drug) L858R/T790M/L718Q [3] | EGFR activity (% Control, 100 nM drug) L858R/L718Q [4] | EGFR activity (% Control, 100 nM drug) DEL/T790M [1] | EGFR activity (% Control, 100 nM drug) L858R (EGFR L858R Ba/F3 cells; Table F) | EGFR activity (% Control, 100 nM drug) L858R/T790M ([2]; Table F) | other results
C=CC(=O)N1CCC[C@H]1C(=O)Nc1cc2c(N(C)C(=O)NCc3ccccc3)ncnc2cc1OC [Compound 5A, (S)-1-acryloyl-N-(4-(3-benzyl-1-methylureido)-7-methoxyquinazolin-6-yl)pyrrolidine-2-carboxamide] | 100 % Control | 110 % Control | 107 % Control | 96 % Control | – | – | – | – | – | – | –
COc1ccc(NC(=O)/C=C/CN(C)C)cc1Nc1ncc2c(n1)N(C)C(=O)N(c1ccccc1)C2 [Compound 7A, (E)-4-(dimethylamino)-N-(4-methoxy-3-((8-methyl-7-oxo-6-phenyl-5,6,7,8-tetrahydropyrimido[4,5-d]pyrimidin-2-yl)amino)phenyl)but-2-enamide] | – | – | – | – | 35 % Control | 106 % Control | 96 % Control | 94 % Control | 5 % Control | 102 % Control | –
C=CC(=O)Nc1ccc(OC)c(Nc2cc(N(C)C(=O)Nc3ccccc3)ncn2)c1 [Compound 12A] | – | – | – | – | 0 % Control | 84 % Control | 47 % Control | 117 % Control | 1 % Control | 48 % Control | –
C=CC(=O)Nc1cccc(Nc2cc(N(C)C(=O)Nc3ccccc3)ncn2)c1 [Compound 13A] | – | – | – | – | 13 % Control | 89 % Control | 90 % Control | 90 % Control | 3 % Control | 71 % Control | –
C=CC(=O)Nc1cccc(N(C(=O)Nc2ccccc2)c2cc(NC)ncn2)c1 [Compound 14A] | – | – | – | – | 24 % Control | 87 % Control | 76 % Control | 98 % Control | 1 % Control | 75 % Control | –
C=CC(=O)Nc1cccc(N(C(=O)NCc2ccccc2)c2cc(NC)ncn2)c1 [Compound 15A] | – | – | – | – | 47 % Control | 86 % Control | 81 % Control | 107 % Control | 3 % Control | 48 % Control | IC50 (EGFR Del Ba/F3 cells; Assay 1, Del, read-out: EGFR Ba/F3 cells IC 50 (nM) Assay 1 Del): 91.9 nM; IC50 ([3]; Assay 1, T/L/L718Q, read-out: EGFR Ba/F3 cells IC 50 (nM) Assay 1 T/L/L718Q): 3260 nM; IC50 ([4]; Assay 1, L718Q/L858R, read-out: EGFR Ba/F3 cells IC 50 (nM) Assay 1 L718Q/L858R): 2150 nM; IC50 ([1]; Assay 1, Del/T790M, read-out: EGFR Ba/F3 cells IC 50 (nM) Assay 1 Del/T790M): 842 nM; IC50 (EGFR L858R Ba/F3 cells; Assay 1, L858R, read-out: EGFR Ba/F3 cells IC 50 (nM) Assay 1 L858R): 17.7 nM; IC50 ([2]; Assay 1, L858R/T790M, read-out: EGFR Ba/F3 cells IC 50 (nM) Assay 1 L858R/T790M): 376 nM
C=CC(=O)Nc1ccc(OC)c(Nc2cc(N(C)C(=O)NCc3ccccc3)ncn2)c1 [Compound 16A] | – | – | – | – | 78 % Control | 92 % Control | 75 % Control | 86 % Control | 117 % Control | 71 % Control | –
C=CC(=O)N1CCC[C@H]1C(=O)Nc1ccc(OC)c(Nc2cc(N(C)C(=O)NCc3ccccc3)ncn2)c1 [Compound 23A] | 106 % Control | 102 % Control | 99 % Control | 111 % Control | – | – | – | – | – | – | –
C=CC(=O)N1CCC[C@@H]1C(=O)Nc1ccc(OC)c(Nc2cc(N(C)C(=O)NCc3ccccc3)ncn2)c1 [Compound 24A] | 95 % Control | 101 % Control | 84 % Control | 108 % Control | – | – | – | – | – | – | –
C=CC(=O)Nc1cccc(Nc2cc(N(C(=O)Nc3ccccc3)c3ccc(N4CCN(C)CC4)cc3)ncn2)c1 [Compound 26A] | 87 % Control | 91 % Control | 11 % Control | 100 % Control | – | – | – | – | – | – | –
C=CC(=O)N1CCC[C@H]1C(=O)Nc1cc2c(N(C)C(=O)Nc3ccccc3)ncnc2cc1OC [Compound 27A] | 95 % Control | 76 % Control | 87 % Control | 102 % Control | – | – | – | – | – | – | –
COc1cc2ncnc(N(C)C(=O)Nc3ccccc3)c2cc1NC(=O)[C@@H]1CCCN1C(=O)CCl [Compound 28A] | 102 % Control | 83 % Control | 94 % Control | 97 % Control | – | – | – | – | – | – | –
C=CC(=O)Nc1cccc(Nc2cc(N(C(=O)NCc3ccccc3)c3ccc(N4CCN(C)CC4)cc3)ncn2)c1 [Compound 30A] | 94 % Control | 104 % Control | 10 % Control | 103 % Control | – | – | – | – | – | – | –
C=CC(=O)N1CCC[C@H]1C(=O)Nc1cc2c(N(CCOC)C(=O)NCc3ccccc3)ncnc2cc1OC [Compound 31A] | 111 % Control | 110 % Control | 108 % Control | 112 % Control | – | – | – | – | – | – | –
C=CC(=O)N1CC[C@@H](CN(C(=O)Nc2ccccc2)c2cc(Nc3ccc(N4CCN(C)CC4)cc3OC)ncn2)C1 [Compound 32A] | 104 % Control | 106 % Control | 99 % Control | 110 % Control | – | – | – | – | – | – | –
C=CC(=O)N1CC[C@H](CN(C(=O)Nc2ccccc2)c2cc(Nc3ccc(N4CCN(C)CC4)cc3OC)ncn2)C1 [Compound 33A] | 102 % Control | 109 % Control | 101 % Control | 106 % Control | – | – | – | – | – | – | –
